According to ChEMBL document CHEMBL5120838, “Synthesis and biological evaluation of geniposide derivatives as inhibitors of hyperuricemia, inflammatory and fibrosis” (Eur J Med Chem, 2022):
Activity calls are given as the source filed them. No cut-off for these calls is given here.

Assays:
HK-2 [1] = assay: Antiinflammatory activity in hyperuricemic human HK-2 cells assessed as reduction in TNF-alpha level at 200 uM; format: functional, cell-based
HK-2 [2] = assay: Antiinflammatory activity in hyperuricemic human HK-2 cells assessed as reduction in TGF-beta level at 200 uM; format: functional, cell-based
[3] = molecular target: Xanthine dehydrogenase/oxidase (Bos taurus, UniProt P80457); assay: Inhibition of bovine XOD assessed as inhibition of uric acid formation using xanthine as substrate preincubated with enzyme for 5 mins followed by substrate addition and measured for 30 mins by microplate reader analysis
Chain of Xanthine dehydrogenase/oxidase (P80457 whole entry): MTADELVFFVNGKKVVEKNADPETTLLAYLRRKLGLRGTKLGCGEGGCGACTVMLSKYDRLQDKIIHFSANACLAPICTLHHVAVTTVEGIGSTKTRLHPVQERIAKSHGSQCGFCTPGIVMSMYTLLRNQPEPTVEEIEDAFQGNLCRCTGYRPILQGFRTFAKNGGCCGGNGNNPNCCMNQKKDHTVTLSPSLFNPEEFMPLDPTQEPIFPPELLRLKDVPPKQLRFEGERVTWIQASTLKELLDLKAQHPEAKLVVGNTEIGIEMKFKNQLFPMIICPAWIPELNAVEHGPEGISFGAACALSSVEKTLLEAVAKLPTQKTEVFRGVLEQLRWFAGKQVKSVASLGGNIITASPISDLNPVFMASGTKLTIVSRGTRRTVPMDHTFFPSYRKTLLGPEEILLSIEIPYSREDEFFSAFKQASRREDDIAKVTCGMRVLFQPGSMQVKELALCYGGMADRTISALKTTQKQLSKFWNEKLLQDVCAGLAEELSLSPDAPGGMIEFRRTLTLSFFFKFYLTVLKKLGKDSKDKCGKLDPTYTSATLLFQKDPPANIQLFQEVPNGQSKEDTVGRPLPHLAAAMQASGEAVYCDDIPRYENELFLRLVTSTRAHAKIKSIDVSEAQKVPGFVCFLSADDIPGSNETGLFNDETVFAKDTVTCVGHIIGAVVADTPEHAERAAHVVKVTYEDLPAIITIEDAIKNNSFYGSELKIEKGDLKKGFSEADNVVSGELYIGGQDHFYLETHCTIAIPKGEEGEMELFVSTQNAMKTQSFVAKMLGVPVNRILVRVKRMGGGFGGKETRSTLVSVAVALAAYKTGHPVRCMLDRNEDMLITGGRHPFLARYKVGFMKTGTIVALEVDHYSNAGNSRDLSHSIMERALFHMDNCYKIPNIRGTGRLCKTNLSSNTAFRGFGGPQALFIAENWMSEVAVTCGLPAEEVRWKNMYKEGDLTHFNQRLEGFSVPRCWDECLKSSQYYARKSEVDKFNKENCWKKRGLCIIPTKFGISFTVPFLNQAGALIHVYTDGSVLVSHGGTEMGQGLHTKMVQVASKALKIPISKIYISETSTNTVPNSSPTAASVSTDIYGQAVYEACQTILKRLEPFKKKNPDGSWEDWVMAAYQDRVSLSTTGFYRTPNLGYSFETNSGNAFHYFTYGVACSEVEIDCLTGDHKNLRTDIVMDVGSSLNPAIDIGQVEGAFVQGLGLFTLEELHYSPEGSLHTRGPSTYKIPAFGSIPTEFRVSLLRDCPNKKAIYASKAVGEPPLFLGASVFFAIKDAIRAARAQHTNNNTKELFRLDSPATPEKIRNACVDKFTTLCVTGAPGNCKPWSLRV

Mus musculus [4] = assay: Anti-hyperuricemic activity against adenine and potassium oxonate-induced hyperuricemia Kunming mouse model assessed as reduction in serum uric acid level at 200 mg/kg, po administered via gavage once daily for 2 weeks (reference value: 318.16 +/- 3.31 uM); format: functional
HK-2 [5] = assay: Antiinflammatory activity in hyperuricemic human HK-2 cells assessed as reduction in IL-1beta level at 200 uM; format: functional, cell-based
Mus musculus [6] = assay: Anti-hyperuricemic activity against adenine and potassium oxonate-induced hyperuricemia Kunming mouse model assessed as reduction in serum creatinine level at 200 mg/kg, po administered via gavage once daily for 2 weeks (reference value: 87.62 +/- 0.67 uM); format: functional
Mus musculus [7] = assay: Anti-hyperuricemic activity against adenine and potassium oxonate-induced hyperuricemia Kunming mouse model assessed as blood urea nitrogen level at 200 mg/kg, po administered via gavage once daily for 2 weeks (reference value: 9.88 +/- 1.21 mM); format: functional
Mus musculus [8] = assay: Anti-hyperuricemic activity against adenine and potassium oxonate-induced hyperuricemia Kunming mouse model assessed as reduction in serum creatinine level at 20 mg/kg, po administered via gavage once daily for 2 weeks (reference value: 87.62 +/- 0.67 uM); format: functional
Mus musculus [9] = assay: (§1) Nephroprotective activity against adenine and potassium oxonate-induced hyperuricemia Kunming mouse model assessed as reduction in neutrophils infiltrations at 20 mg/kg, po administered via gavage and measured after 21 days by hematoxylin-eosin and Masson trichrome staining based optical microscopic analysis; format: functional, organism-based; conditions: time 21.0 day
Mus musculus [10] = assay: Anti-hyperuricemic activity against adenine and potassium oxonate-induced hyperuricemia Kunming mouse model assessed as blood urea nitrogen level at 20 mg/kg, po administered via gavage once daily for 2 weeks (reference value: 9.88 +/- 1.21 mM); format: functional
Mus musculus [11] = assay: as §1, with “cytoplasmic vacuolation of renal tubular epithelial cells” for “neutrophils infiltrations”; format: functional, organism-based; conditions: time 21.0 day
Mus musculus [12] = assay: as §1, with “connective tissue hyperplasia” for “neutrophils infiltrations”; format: functional, organism-based; conditions: time 21.0 day
Mus musculus [13] = assay: as §1, with “appearance of clear tubular structures” for “reduction in neutrophils infiltrations”; format: functional, organism-based; conditions: time 21.0 day
Mus musculus [14] = assay: as §1, with “renal tubule dilation” for “neutrophils infiltrations”; format: functional, organism-based; conditions: time 21.0 day
Mus musculus [15] = assay: Anti-hyperuricemic activity against adenine and potassium oxonate-induced hyperuricemia Kunming mouse model assessed as reduction in serum uric acid level at 20 mg/kg, po administered via gavage once daily for 2 weeks (reference value: 318.16 +/- 3.31 uM); format: functional
Mus musculus [16] = assay: as §1, with “tubular-interstitial lesion development” for “neutrophils infiltrations”; format: functional, organism-based; conditions: time 21.0 day

Compound | Activity (HK-2 [1]) | Activity (HK-2 [2]) | IC50 [3] [µM] | Activity (Mus musculus [4]) [µM] | Activity (HK-2 [5]) | Activity (Mus musculus [6]) [µM] | Activity (Mus musculus [7]) [mM] | Activity (Mus musculus [8]) [µM] | Activity (Mus musculus [9]) | Activity (Mus musculus [10]) [mM] | Activity (Mus musculus [11]) | Activity (Mus musculus [12]) | Activity (Mus musculus [13]) | Activity (Mus musculus [14]) | Activity (Mus musculus [15]) [µM] | Activity (Mus musculus [16])
COC(=O)C1=CO[C@@H](O[C@@H]2O[C@H](CO)[C@@H](O)[C@H](O)[C@H]2O)[C@@H]2C(CO)=CC[C@H]12 [GENIPOSIDE] | Active | Active | 161 | 236.72 | Active | 75.09 | 7 |  |  |  |  |  |  |  |  | 
CC(=O)OCC1=CC[C@@H]2C(C(=O)Nn3cccc3)=CO[C@@H](O[C@@H]3O[C@H](COC(C)=O)[C@@H](OC(C)=O)[C@H](OC(C)=O)[C@H]3OC(C)=O)[C@H]12 |  |  | 2.15 |  |  |  |  | 65.57 | Active | 6.42 | Active | Active | Active | Active | 263.03 | Active
CC(=O)OCC1=CC[C@@H]2C(C(=O)Nc3ccc(Br)c4ccccc34)=CO[C@@H](O[C@@H]3O[C@H](COC(C)=O)[C@@H](OC(C)=O)[C@H](OC(C)=O)[C@H]3OC(C)=O)[C@H]12 |  |  | 4.14 |  |  |  |  | 57.83 | Active | 6.02 | Active | Active | Active | Active | 242.83 | Active
